According to PubChem BioAssay (NCI):
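96-well plates; 48 h exposure; 5 concentrations. Endpoints by linear interpolation between flanking doses. Not reached: highest tested concentration assigned. At the GI50, growth is halved. TGI: concentration producing complete growth inhibition.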

Experiments:
Experiment in all cases: DTP human tumour cell line panel, 48 h
[1] = test system: 786-0 renal
[2] = test system: A498 renal
[3] = test system: A549 NSCLC
[4] = test system: ACHN renal
[5] = test system: BT-549 breast
[6] = test system: CAKI-1 renal
[7] = test system: CCRF-CEM leukemia
[8] = test system: COLO 205 colon
[9] = test system: DU-145 prostate
[10] = test system: EKVX NSCLC
[11] = test system: HCC-2998 colon
[12] = test system: HCT-116 colon
[13] = test system: HCT-15 colon
[14] = test system: HL-60(TB) leukemia
[15] = test system: HOP-62 NSCLC
[16] = test system: HOP-92 NSCLC
[17] = test system: HS 578T breast
[18] = test system: HT29 colon
[19] = test system: IGROV1 ovarian
[20] = test system: K-562 leukemia
[21] = test system: KM12 colon
[22] = test system: LOX IMVI melanoma
[23] = test system: M14 melanoma
[24] = test system: MALME-3M melanoma
[25] = test system: MCF7 breast
[26] = test system: MDA-MB-231 breast
[27] = test system: MDA-MB-435
[28] = test system: MOLT-4 leukemia
[29] = test system: NCI-H226 lung
[30] = test system: NCI-H23 lung
[31] = test system: NCI-H460 lung
[32] = test system: NCI-H522 lung
[33] = test system: NCI/ADR-RES ovarian
[34] = test system: OVCAR-3 ovarian
[35] = test system: OVCAR-4 ovarian
[36] = test system: OVCAR-5 ovarian
[37] = test system: OVCAR-8 ovarian
[38] = test system: PC-3 prostate
[39] = test system: RPMI-8226 leukemia
[40] = test system: RXF 393 renal
[41] = test system: SF-268 CNS
[42] = test system: SF-295 CNS
[43] = test system: SF-539 CNS
[44] = test system: SK-MEL-2 melanoma
[45] = test system: SK-MEL-28 melanoma
[46] = test system: SK-MEL-5 melanoma
[47] = test system: SK-OV-3 ovarian
[48] = test system: SN12C renal
[49] = test system: SNB-19 CNS
[50] = test system: SNB-75 CNS
[51] = test system: SR leukemia
[52] = test system: SW-620 colon
[53] = test system: T-47D breast
[54] = test system: TK-10 renal
[55] = test system: U251 CNS
[56] = test system: UACC-257 melanoma
[57] = test system: UACC-62 melanoma
[58] = test system: UO-31 renal

## CCOC(=O)c1c(CN2CCCCC2)nc2ccc(Cl)cc2c1-c1ccccc1
[1]
  GI50: 19.2 µM
  TGI: 41.8 µM
[2]
  GI50: 18.3 µM
  TGI: 37.7 µM
[3]
  GI50: 29.6 µM
  TGI: > 100 µM
[4]
  GI50: 16.9 µM
  TGI: 35 µM
[5]
  GI50: 39.5 µM
  TGI: > 100 µM
[6]
  GI50: 24.7 µM
  TGI: 72.3 µM
[7]
  GI50: 7.6 µM
  TGI: 36.6 µM
[8]
  GI50: 22.9 µM
  TGI: 58.3 µM
[9]
  GI50: 32.5 µM
  TGI: > 100 µM
[10]
  GI50: 25.2 µM
  TGI: 69.2 µM
[11]
  GI50: 19.1 µM
  TGI: 35.8 µM
[12]
  GI50: 15.6 µM
  TGI: 37 µM
[13]
  GI50: 21.4 µM
  TGI: 47.9 µM
[14]
  GI50: 18.1 µM
  TGI: 43.4 µM
[15]
  GI50: 23.9 µM
  TGI: 56.5 µM
[16]
  GI50: 15.8 µM
  TGI: 39.9 µM
[17]
  GI50: 27.1 µM
  TGI: 75.1 µM
[18]
  GI50: 18.8 µM
  TGI: 54.2 µM
[19]
  GI50: 24 µM
  TGI: > 100 µM
[20]
  GI50: 25.6 µM
  TGI: 92.7 µM
[21]
  GI50: 27.4 µM
  TGI: 78.3 µM
[22]
  GI50: 20 µM
  TGI: 44.2 µM
[23]
  GI50: 24.6 µM
  TGI: 72.7 µM
[24]
  GI50: 25.1 µM
  TGI: 61.9 µM
[25]
  GI50: 18.6 µM
  TGI: 41.2 µM
[26]
  GI50: 15.9 µM
  TGI: 35 µM
[27]
  GI50: 35.1 µM
  TGI: > 100 µM
[28]
  GI50: 6.5 µM
  TGI: 27.9 µM
[29]
  GI50: 20.7 µM
  TGI: 40.4 µM
[30]
  GI50: 24.2 µM
  TGI: 64.1 µM
[31]
  GI50: 20 µM
  TGI: 43.2 µM
[32]
  GI50: 19.2 µM
  TGI: 53 µM
[33]
  GI50: 19.6 µM
  TGI: 58.2 µM
[34]
  GI50: 17.7 µM
  TGI: 38.1 µM
[35]
  GI50: 37.7 µM
  TGI: > 100 µM
[36]
  GI50: 17.6 µM
  TGI: 36.6 µM
[37]
  GI50: 35.4 µM
  TGI: > 100 µM
[38]
  GI50: 23.8 µM
  TGI: 93.7 µM
[39]
  GI50: 20.4 µM
  TGI: 46.2 µM
[40]
  GI50: 21.4 µM
  TGI: 50 µM
[41]
  GI50: 23.2 µM
  TGI: 55.3 µM
[42]
  GI50: 31.5 µM
  TGI: 88 µM
[43]
  GI50: 26.7 µM
  TGI: 66.2 µM
[44]
  GI50: 18.9 µM
  TGI: 40.6 µM
[45]
  GI50: 30.4 µM
  TGI: 88.3 µM
[46]
  GI50: 17.4 µM
  TGI: 32.8 µM
[47]
  GI50: 23.1 µM
  TGI: 49 µM
[48]
  GI50: 20.3 µM
  TGI: 45 µM
[49]
  GI50: 21.8 µM
  TGI: 48.4 µM
[50]
  GI50: 47.7 µM
  TGI: > 100 µM
[51]
  GI50: 15.7 µM
  TGI: 43.4 µM
[52]
  GI50: 18.5 µM
  TGI: 39.2 µM
[53]
  GI50: 17.1 µM
  TGI: 49.1 µM
[54]
  GI50: 42.7 µM
  TGI: > 100 µM
[55]
  GI50: 20.3 µM
  TGI: 41.2 µM
[56]
  GI50: 22.4 µM
  TGI: 56.5 µM
[57]
  GI50: 17.2 µM
  TGI: 38.1 µM
[58]
  GI50: 20.6 µM
  TGI: 53.9 µM

## COc1cc(F)c(F)c(Nc2ccc(I)cc2F)c1NS(=O)(=O)C1(CC(O)CO)CC1 (configuration not stated)
[1]
  GI50: 16.8 µM
  TGI: 38.7 µM
[2]
  GI50: 10.1 µM
  TGI: 28.1 µM
[3]
  GI50: 15.4 µM
  TGI: > 64.9 µM
[4]
  GI50: 17 µM
  TGI: > 73.9 µM
[5]
  GI50: 14.6 µM
  TGI: 35.2 µM
[6]
  GI50: 10.2 µM
  TGI: 54.4 µM
[7]
  GI50: 19.8 µM
  TGI: > 72.3 µM
[8]
  GI50: 3.43 µM
  TGI: 16.1 µM
[9]
  GI50: 19.4 µM
  TGI: 54 µM
[10]
  GI50: 13.4 µM
  TGI: 57.2 µM
[11]
  GI50: 10.8 µM
  TGI: 25.5 µM
[12]
  GI50: 13.5 µM
  TGI: 31.6 µM
[13]
  GI50: 14.6 µM
  TGI: 47.4 µM
[14]
  GI50: 7.19 µM
  TGI: 57.7 µM
[15]
  GI50: 14 µM
  TGI: 32.4 µM
[16]
  GI50: 1.13 µM
  TGI: 19.6 µM
[17]
  GI50: 10.8 µM
  TGI: 55.4 µM
[18]
  GI50: 4.5 µM
  TGI: 22.5 µM
[19]
  GI50: 10.4 µM
  TGI: 34.4 µM
[20]
  GI50: 15.7 µM
  TGI: > 81.7 µM
[21]
  GI50: 13.3 µM
  TGI: 30.9 µM
[22]
  GI50: 4.92 µM
  TGI: 17.6 µM
[23]
  GI50: 3.04 µM
  TGI: 15.5 µM
[24]
  GI50: 1.02 µM
  TGI: 8.02 µM
[25]
  GI50: 16.6 µM
  TGI: 43.7 µM
[26]
  GI50: 11 µM
  TGI: 27.3 µM
[27]
  GI50: 4.63 µM
  TGI: 22.3 µM
[28]
  GI50: 15.2 µM
  TGI: 52.3 µM
[29]
  GI50: 15.2 µM
  TGI: 49.2 µM
[30]
  GI50: 12.1 µM
  TGI: 36.4 µM
[31]
  GI50: 13.9 µM
  TGI: 33.2 µM
[32]
  GI50: 11.5 µM
  TGI: 29.9 µM
[33]
  GI50: 18.8 µM
  TGI: 57.9 µM
[34]
  GI50: 14.6 µM
  TGI: 36.4 µM
[35]
  GI50: 16.6 µM
  TGI: > 91.9 µM
[36]
  GI50: 10.2 µM
  TGI: 30.1 µM
[37]
  GI50: 18.7 µM
  TGI: 61 µM
[38]
  GI50: 15.1 µM
  TGI: > 57.5 µM
[39]
  GI50: 16 µM
  TGI: 54.6 µM
[40]
  GI50: 5.78 µM
  TGI: 19.7 µM
[41]
  GI50: 15.6 µM
  TGI: 55 µM
[42]
  GI50: 15 µM
  TGI: 32.5 µM
[43]
  GI50: 15.8 µM
  TGI: 33.8 µM
[44]
  GI50: 4.1 µM
  TGI: 18.8 µM
[45]
  GI50: 3.02 µM
  TGI: 13.7 µM
[46]
  GI50: 8.12 µM
  TGI: 21.9 µM
[47]
  GI50: 25.8 µM
  TGI: > 79.6 µM
[48]
  GI50: 12.5 µM
  TGI: 38.6 µM
[49]
  GI50: 11 µM
  TGI: 50.1 µM
[50]
  GI50: 6.29 µM
  TGI: 49.2 µM
[51]
  GI50: 15.7 µM
  TGI: > 69.4 µM
[52]
  GI50: 13.6 µM
  TGI: > 59.5 µM
[53]
  GI50: 15.7 µM
  TGI: > 75.5 µM
[54]
  GI50: 14.9 µM
  TGI: 72.1 µM
[55]
  GI50: 15.2 µM
  TGI: 39.9 µM
[56]
  GI50: 3.05 µM
  TGI: 19.5 µM
[57]
  GI50: 1.96 µM
  TGI: 9.81 µM
[58]
  GI50: 10.4 µM
  TGI: 40.2 µM
